The source made the active and inactive calls.
Tests used:
[1] = viability of uninfected HEp-2 cells – cell-based, HTS, cytotoxicity control for RSV inhibitor project, dose response (AID 2410); assay type: functional; settings: human respiratory syncytial virus
[2] = target: Cytochrome P450 2C19 (Homo sapiens, UniProt P33261); test: Cytochrome panel assay with activity outcomes. Panel member name: p450-cyp2c19 Compounds with AC50 equal or less than 10 uM are considered active; assay type: functional; settings: read-out: AC50
[3] = target: Cytochrome P450 2C9 (Homo sapiens, UniProt P11712)
[4] = target: Voltage-gated inwardly rectifying potassium channel KCNH2 (Homo sapiens, UniProt Q12809); settings: Potency;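 note: confirmatory quantitative high-throughput screen measuring inhibition of hERG channel activity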
[5] = NIH-3T3 fibroblast cytotoxicity, dose response, cytotoxicity control, cell-based, fluorescence, Alamar Blue, secondary assay (AID 2327); assay type: functional;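 note: NIH-3T3 mouse fibroblasts cultured with fluconazole at 8 µg/mL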
[6] = cells; assay type: functional, cell-based
[7] = fluconazole-exposed Candida albicans growth modulators – fluorescence, retest, confirmation (AID 2467); assay type: functional, cell-based
[8] = cells; assay type: functional, cell-based; remark: listed apart in the source
[9] = target: T1, Serine/threonine-protein phosphatase (Candida dubliniensis (strain CD36 / CBS 7987 / NCPF 3949 / NRRLY-17841) (Yeast), UniProt B9W6M3); test: blockers of CaCl2-induced CDRE-lacZ signaling – S. cerevisiae, luminescence, secondary, dose response (AID 2388); assay type: functional, cell-based;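 note: yeast reporter cells carrying a calcineurin-responsive lacZ construct stimulated with calcium chloride; luminescent beta-galactosidase reporter signal in whole cells rather than isolated phosphatase activity; potency for inhibition where a drop in reporter signal means calcineurin blockade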
T1 sequence (B9W6M3 whole entry): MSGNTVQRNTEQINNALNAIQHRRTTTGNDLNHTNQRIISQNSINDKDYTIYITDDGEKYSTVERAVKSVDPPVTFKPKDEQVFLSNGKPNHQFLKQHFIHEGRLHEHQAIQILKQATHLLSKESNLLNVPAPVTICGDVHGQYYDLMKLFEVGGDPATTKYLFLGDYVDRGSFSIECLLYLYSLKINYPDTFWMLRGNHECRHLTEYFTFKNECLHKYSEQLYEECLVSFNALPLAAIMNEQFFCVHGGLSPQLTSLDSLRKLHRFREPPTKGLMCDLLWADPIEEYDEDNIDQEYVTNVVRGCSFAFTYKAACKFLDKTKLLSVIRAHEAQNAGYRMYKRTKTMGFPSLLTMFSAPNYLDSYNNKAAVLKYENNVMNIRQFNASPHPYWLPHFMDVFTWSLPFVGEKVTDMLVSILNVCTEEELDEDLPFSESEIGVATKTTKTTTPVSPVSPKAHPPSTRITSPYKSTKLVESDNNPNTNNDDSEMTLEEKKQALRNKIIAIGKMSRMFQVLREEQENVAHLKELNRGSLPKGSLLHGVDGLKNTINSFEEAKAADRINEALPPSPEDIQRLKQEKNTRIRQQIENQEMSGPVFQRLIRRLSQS

[10] = target: Heat shock protein HSP 90-alpha (Homo sapiens, UniProt P07900); assay type: functional, organism-based
[11] = system: INS1; test: INS-1E survival protection against cytokine death – cell-based, luminescence, retest, dose response (AID 449756); assay type: functional; settings: Rattus norvegicus;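 note: cell death triggered by IL-1 beta plus TNF-alpha plus IFN-gamma mixture; protective hits raise ATP signal compared with cytokine alone wells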
[12] = target: ATP-dependent molecular chaperone HSP82 (Candida albicans (strain WO-1) (Yeast), UniProt C4YTQ8); test: steroid-induced GRE reporter decrease in yeast – S. cerevisiae, luminescence, Hsp90 inhibitor project, dose response (AID 2400); assay type: functional, cell-based;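 note: beta-galactosidase luminescence from glucocorticoid response element reporter as proxy for Hsp90 function; inhibitor potency where signal loss means Hsp90 inhibition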
[13] = luciferase reporter signal suppression in cells – H4 neuroglioma cells, luminescence, dose response (AID 1990); assay type: functional, cell-based
[14] = system: BJ; test: BJ-TERT fibroblast viability loss – cell-based, RAS-independent, luminescence, dose response (AID 1933); assay type: functional; settings: Homo sapiens
[15] = Luminescence Cell-Based Dose Response HTS to Identify Inhibitors of 5'UTR Stem-Loop Driven Prion Protein mRNA Translation in H4 Neuroglioblastoma Cells. [Related pubchem assays: 1827 (Project Summary), 1813 (Primary HTS)]; assay type: functional
[16] = alpha-synuclein stem-loop luciferase translation blockers – H4 neuroglioma cells, luminescence, confirmation (AID 1988); assay type: functional, cell-based
[17] = system: BJ; test: cells; assay type: functional, cell-based; settings: Homo sapiens
[18] = system: BJ; test: BJ-TERT-LT-ST fibroblast viability loss – cell-based, RAS-independent, luminescence, dose response (AID 1935); assay type: functional; settings: Homo sapiens;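 note: BJ fibroblasts immortalized with TERT plus LT and ST oncogenes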
[19] = DRD fibroblast viability loss – cell-based, non-viral oncogenic, luminescence, dose response (AID 1934); assay type: functional; settings: Homo sapiens
[20] = target: T2, Short transient receptor potential channel 4 (Mus musculus, UniProt Q9QUQ5); test: block of DAMGO-driven TRPC4 calcium entry – cell-based, HEK293 TRPC4/mu-opioid, Fluo-4 calcium, dose response (AID 434942); assay type: functional;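 note: potency of inhibitors blocking the TRPC4 calcium response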
T2 sequence (Q9QUQ5 whole entry): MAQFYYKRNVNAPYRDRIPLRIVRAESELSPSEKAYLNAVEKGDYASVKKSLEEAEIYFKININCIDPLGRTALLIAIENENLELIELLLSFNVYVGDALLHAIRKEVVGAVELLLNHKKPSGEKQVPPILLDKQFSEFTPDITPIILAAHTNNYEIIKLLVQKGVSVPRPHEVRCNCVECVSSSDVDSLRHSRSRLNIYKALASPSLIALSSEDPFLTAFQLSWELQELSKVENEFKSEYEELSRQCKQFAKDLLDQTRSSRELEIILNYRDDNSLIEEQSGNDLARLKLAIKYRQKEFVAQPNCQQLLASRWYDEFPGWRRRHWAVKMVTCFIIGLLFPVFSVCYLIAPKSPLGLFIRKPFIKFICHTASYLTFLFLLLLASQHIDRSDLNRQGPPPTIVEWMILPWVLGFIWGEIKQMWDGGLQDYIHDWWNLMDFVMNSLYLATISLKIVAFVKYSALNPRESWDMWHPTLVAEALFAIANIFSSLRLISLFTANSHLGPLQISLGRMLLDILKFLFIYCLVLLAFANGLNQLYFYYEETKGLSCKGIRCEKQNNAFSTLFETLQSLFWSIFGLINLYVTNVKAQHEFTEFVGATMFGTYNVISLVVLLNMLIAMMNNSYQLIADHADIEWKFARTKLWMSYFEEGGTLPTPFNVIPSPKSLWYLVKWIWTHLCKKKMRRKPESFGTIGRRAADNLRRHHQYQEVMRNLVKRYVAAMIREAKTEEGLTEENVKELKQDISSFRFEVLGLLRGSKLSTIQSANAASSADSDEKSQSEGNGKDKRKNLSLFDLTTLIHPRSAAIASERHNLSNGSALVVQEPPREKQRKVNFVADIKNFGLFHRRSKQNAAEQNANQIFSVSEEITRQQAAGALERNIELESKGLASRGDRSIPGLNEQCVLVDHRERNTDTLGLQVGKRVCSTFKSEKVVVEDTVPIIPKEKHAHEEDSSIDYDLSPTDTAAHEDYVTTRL

[21] = system: BJ; test: growth inhibition of engineered Ras-driven BJ cells – cell-based, alamar blue fluorescence, cherrypicked samples, dose response (AID 2631); assay type: functional; settings: Homo sapiens;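 note: confirmatory dose-response assay in RAS-dependent BJ fibroblasts engineered with TERT, LT and ST, with cytotoxicity read by fluorescence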
[22] = HEK-293T viability loss after treatment – luminescence, T-cell screen hits, cytotoxicity control for TCR NF-kB inhibitor project, dose response (AID 489026); assay type: functional, cell-based;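 note: cells exposed to compound about 14 hours before the viability readout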

Voltage-gated inwardly rectifying potassium channel KCNH2, sequence (Q12809 whole entry): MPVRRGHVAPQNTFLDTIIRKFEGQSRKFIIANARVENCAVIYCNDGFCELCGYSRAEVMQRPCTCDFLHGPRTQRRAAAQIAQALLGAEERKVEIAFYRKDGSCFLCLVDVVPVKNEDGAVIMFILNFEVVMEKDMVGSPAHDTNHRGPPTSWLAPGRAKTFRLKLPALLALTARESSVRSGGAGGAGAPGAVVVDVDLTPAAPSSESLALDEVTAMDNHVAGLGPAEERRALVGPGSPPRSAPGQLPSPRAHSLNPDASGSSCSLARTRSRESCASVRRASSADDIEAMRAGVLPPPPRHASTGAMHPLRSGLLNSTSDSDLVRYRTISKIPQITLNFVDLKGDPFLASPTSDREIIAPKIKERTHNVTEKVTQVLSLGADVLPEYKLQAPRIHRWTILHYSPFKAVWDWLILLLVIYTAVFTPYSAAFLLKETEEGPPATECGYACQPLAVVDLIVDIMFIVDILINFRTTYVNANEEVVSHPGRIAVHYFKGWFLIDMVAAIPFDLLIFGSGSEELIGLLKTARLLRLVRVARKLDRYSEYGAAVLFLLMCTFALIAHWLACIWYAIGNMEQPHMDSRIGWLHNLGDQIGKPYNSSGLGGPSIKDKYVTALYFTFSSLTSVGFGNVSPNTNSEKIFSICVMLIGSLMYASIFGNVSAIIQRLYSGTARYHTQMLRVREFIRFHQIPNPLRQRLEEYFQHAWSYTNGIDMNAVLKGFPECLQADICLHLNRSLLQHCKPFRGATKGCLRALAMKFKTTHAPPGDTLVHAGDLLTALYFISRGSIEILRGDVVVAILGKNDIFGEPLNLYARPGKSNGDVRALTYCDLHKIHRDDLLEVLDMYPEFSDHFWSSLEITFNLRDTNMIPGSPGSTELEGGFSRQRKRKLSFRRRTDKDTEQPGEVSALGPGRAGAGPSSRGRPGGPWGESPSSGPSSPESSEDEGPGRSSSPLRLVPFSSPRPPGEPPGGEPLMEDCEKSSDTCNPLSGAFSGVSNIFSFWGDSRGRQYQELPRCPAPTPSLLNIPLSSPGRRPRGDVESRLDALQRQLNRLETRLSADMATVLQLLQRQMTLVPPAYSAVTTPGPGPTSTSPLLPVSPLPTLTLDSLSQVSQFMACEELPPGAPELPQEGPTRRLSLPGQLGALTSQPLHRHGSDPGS
Cytochrome P450 2C9, sequence (P11712 whole entry): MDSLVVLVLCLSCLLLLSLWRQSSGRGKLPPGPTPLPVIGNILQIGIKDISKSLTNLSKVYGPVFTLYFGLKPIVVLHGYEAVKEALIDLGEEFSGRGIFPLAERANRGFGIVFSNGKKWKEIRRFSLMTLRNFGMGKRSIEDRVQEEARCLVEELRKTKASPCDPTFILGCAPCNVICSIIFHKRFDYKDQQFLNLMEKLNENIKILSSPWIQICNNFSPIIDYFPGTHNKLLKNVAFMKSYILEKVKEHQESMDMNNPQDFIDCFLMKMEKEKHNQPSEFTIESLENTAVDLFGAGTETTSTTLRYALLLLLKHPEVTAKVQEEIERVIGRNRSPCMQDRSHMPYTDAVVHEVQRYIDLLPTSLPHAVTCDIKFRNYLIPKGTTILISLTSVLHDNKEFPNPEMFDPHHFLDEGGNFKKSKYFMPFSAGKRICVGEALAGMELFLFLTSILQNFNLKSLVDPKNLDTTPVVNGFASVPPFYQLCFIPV
ATP-dependent molecular chaperone HSP82, sequence (C4YTQ8 whole entry): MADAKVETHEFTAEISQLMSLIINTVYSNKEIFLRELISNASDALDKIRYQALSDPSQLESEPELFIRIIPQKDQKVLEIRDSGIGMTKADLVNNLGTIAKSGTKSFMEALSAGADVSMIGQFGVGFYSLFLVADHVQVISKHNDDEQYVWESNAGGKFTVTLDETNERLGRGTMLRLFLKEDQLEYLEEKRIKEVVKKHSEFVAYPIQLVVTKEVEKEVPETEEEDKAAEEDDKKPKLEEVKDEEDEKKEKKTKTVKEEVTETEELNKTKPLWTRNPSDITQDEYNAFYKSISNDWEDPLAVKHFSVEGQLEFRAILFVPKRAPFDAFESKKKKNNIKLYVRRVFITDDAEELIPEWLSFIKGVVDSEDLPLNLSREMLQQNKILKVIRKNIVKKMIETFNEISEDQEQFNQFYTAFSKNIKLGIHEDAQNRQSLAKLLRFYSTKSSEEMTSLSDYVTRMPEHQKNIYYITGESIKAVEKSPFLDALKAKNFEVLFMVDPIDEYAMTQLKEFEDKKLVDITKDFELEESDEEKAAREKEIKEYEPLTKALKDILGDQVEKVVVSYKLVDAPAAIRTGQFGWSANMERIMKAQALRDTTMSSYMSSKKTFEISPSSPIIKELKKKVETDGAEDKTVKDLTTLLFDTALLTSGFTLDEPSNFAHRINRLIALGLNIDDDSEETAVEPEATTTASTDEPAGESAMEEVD
Cytochrome P450 2C19, sequence (P33261 whole entry): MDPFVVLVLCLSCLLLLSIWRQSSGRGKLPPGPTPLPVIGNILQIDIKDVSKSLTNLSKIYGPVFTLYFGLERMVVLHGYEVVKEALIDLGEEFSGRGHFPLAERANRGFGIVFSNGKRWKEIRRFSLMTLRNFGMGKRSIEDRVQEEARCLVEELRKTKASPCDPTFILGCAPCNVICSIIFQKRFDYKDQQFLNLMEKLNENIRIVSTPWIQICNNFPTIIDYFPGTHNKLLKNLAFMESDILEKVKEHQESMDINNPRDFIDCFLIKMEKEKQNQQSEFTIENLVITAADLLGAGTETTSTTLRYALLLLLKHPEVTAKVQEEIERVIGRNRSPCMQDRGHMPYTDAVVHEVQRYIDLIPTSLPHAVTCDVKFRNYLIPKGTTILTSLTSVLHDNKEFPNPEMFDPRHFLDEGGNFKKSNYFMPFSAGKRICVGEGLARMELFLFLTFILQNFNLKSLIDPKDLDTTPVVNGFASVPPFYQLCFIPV

Structure (SMILES) | AC50 [4] | EC50 [13] | EC50 [14] | EC50 [15] | EC50 [16] | EC50 [17] | EC50 [18] | EC50 [19] | EC50 [21] | also measured
CCCOC(=O)c1c(-c2ccccc2)nc(CC)c(C(=O)SCC)c1CCC | 15.8 µM (inconclusive) | – | – | – | – | – | – | – | – | CC50 [1]: 35.6 µM (active); AC50 [2]: 39.8 µM (inconclusive); AC50 [3]: 7.94 µM (inconclusive)
COc1cccc(/C=N/NC(=O)C(=O)Nc2ccccc2OC(F)(F)C(F)F)c1O | – | – | – | – | – | – | – | – | – | EC50 [5]: > 160 µM (inactive); EC50 [6]: 92.8 µM (active); EC50 [7]: 0.46 µM (active); EC50 [8]: > 350 µM (not active); EC50 [9]: > 180 µM (inactive); AC50 [10]: 4.2 µM (active); AC50 [11]: 2.77 µM (active); EC50 [12]: 10.6 µM (active)
c1ccc(NNc2ccccc2)cc1 [HYDRAZOBENZENE] | 35.5 µM (inconclusive) | – | – | – | – | – | – | – | – | –
COc1ccc2c(c1)sc(N)[n+]2Cc1cc(C)cc2cccnc12 | – | 7.07 µM (inconclusive) | 1.98 µM (active) | 8.01 µM (active) | 0.2 µM (active) | 1.55 µM (inconclusive) | 1.5 µM (inconclusive) | 1.61 µM (active) | 0.605 µM (active) | EC50 [20]: 1.33 µM (active)
Cc1cc(C(C)(C)C)c(O)c(C(C)(C)C)c1 [BUTYLATED HYDROXYTOLUENE] | 11.2 µM (inconclusive) | – | – | – | – | – | – | – | – | –
O=C(N/N=C/c1ccccc1Cl)c1[nH]c2ccc(Br)cc2c1-c1ccccc1 | – | 0.304 µM (active) | 0.608 µM (active) | 0.136 µM (active) | 0.163 µM (active) | 27.5 µM (active) | 0.748 µM (inconclusive) | 0.615 µM (active) | 0.2 µM (active) | IC50 [22]: > 80 µM (inactive)

From ChEMBL document CHEMBL1201862, “PubChem BioAssay data set” (2004)
